Assay results taken from patent publication US20230357179A1, “RAF KINASE INHIBITORS AND METHODS OF USE THEREOF” (Deciphera Pharmaceuticals, LLC, priority 2021, published 2023).

Columns and labels:
A-Raf kinase = target: T1, A-Raf kinase (Homo sapiens, UniProt P10398, Y301D/Y302D); experiment: Biochemical assay for A-Raf.1 (coupled pyruvate kinase/lactate dehydrogenase); settings: read-out: ARAF.1 IC50
T1 construct: purchased Sigma
Outline: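 A-Raf (5.55 nM) phosphorylating 30.1 nM MEK with 1 mM ATP was monitored by pyruvate kinase/lactate dehydrogenase-coupled NADH oxidation at 340 nm for 6 h at 30° C, in pH 7.5 Tris buffer with 15 mM MgCl2, 1% DMSO. Rates from 4–5 h gave percent inhibition; IC50 by four-parameter fit.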

B-Raf kinase = target: T2, B-Raf kinase (Homo sapiens, UniProt P15056); experiment: Biochemical assay for B-Raf.1 (coupled pyruvate kinase/lactate dehydrogenase); settings: read-out: BRAF.1 IC50
T2 construct: GST (N); purchased Sigma
T2 sequence (P15056 416-766): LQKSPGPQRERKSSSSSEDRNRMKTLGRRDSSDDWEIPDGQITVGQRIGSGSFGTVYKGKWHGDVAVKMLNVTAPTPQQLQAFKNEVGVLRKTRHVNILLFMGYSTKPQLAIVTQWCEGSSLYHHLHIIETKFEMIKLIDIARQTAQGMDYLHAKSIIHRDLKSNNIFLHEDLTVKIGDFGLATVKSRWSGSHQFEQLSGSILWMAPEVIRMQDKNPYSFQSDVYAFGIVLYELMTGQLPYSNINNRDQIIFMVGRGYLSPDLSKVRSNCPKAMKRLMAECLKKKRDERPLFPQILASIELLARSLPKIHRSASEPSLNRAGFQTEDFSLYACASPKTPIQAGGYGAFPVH
Outline: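 NADH oxidation followed at 340 nm in a pyruvate kinase/lactate dehydrogenase-coupled assay with 0.13 nM B-Raf, 30.1 nM MEK substrate, 1 mM ATP, pH 7.5 Tris buffer, 1% DMSO. Monitored 6 h at 30 °C; rate taken from 4–5 h. IC50 from four-parameter sigmoidal fit.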

A375 cells = experiment: A375 cell proliferation assay (1), resazurin, 96-well; type: cell-based; settings: Homo sapiens, A-375, inhibition of cell proliferation
Outline: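 Viability was read by resazurin fluorescence at 540 nm excitation and 600 nm emission, using a 440 μM solution added for 5–6 h at the end of culture. IC50 came from the curve fit.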

WM3928 cells = experiment: WM3928 cell proliferation assay (1), resazurin, 96-well; type: cell-based; settings: inhibition of cell proliferation
Description: WM3928 Cell Proliferation Assay (1)
WM3928 cells (#WM3928-01-0001) are obtained from Rockland Immunochemicals Inc (Gilbertsville, PA). Briefly, cells were grown in MCDB 153 medium (Sigma, #M7403, St. Louis, MO) supplemented with 20% Leibovitz's L-15 (ThermoFisher #11415-064, Waltham, MA), 2% heat inactivated fetal bovine serum (ThermoFisher, #A3840001, Waltham, MA), 5 μg/mL Insulin (Bovine Pancreas) (Sigma, #I0516, St. Louis, MO), 1.68 mM Calcium Chloride (Sigma, #C-34006, St. Louis, MO) and 1% Penicillin/Streptomycin/L-Glutamine (ThermoFisher #10378016, Waltham, MA) at 37° C., 5% CO2, and 95% humidity. Cells are expanded until reaching 70-95% confluency at which point they are subcultured or harvested for assay use. A serial dilution of test compound is dispensed into a 96-well black clear bottom plate in triplicate. Three thousand cells are added per well in 200 μL complete growth medium in the 96-well plate. Plates are incubated for 67-72 hours at 37° C., 5% CO2, and 95% humidity. At the end of the incubation, 40 μL of a 440 μM solution of resazurin (Sigma, #199303, St. Louis, MO) in PBS is added to each well of the plate and plates are incubated for an additional 6-7 hours at 37° C., 5% CO2, and 95% humidity. Plates are read on a Synergy2 or equivalent reader (Biotek, Winooski VT) using an excitation of 540 nm and an emission of 600 nm. Data is analyzed using Prism software (GraphPad, San Diego, CA) to calculate IC50 values.

T1 sequence (P10398 with tags, fused parts or gaps Y301D/Y302D): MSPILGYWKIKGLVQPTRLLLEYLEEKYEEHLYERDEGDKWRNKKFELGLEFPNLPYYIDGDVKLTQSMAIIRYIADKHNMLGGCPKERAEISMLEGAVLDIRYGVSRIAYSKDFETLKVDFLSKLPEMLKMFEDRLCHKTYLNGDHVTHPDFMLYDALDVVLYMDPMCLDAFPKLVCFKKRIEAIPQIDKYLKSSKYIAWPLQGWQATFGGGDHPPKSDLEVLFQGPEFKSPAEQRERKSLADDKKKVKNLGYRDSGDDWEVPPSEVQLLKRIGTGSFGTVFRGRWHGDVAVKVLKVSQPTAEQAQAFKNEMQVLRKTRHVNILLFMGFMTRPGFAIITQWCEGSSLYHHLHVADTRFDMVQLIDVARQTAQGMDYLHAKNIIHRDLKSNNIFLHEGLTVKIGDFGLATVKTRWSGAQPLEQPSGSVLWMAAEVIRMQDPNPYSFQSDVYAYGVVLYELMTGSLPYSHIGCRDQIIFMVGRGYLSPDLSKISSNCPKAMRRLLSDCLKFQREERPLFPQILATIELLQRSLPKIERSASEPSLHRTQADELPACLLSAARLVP

Row | Compound | IC50 (A-Raf kinase) | IC50 (B-Raf kinase) | IC50 (A375 cells) | IC50 (WM3928 cells)
1 | Cc1ncc(NC(=O)NCCC2(C)CC2)cc1-c1nccc(-c2ccnc(NC(=O)C3CC3)c2)n1 [Example 81] | > 1 µM | ≤ 0.1 µM | 1 to 10 µM | 0.5 to 1 µM
2 | COC(C)(C)CCNC(=O)Nc1cnc(C)c(-c2nccc(-c3ccnc(NC(=O)C4CC4)c3)n2)c1 [Example 82] | > 1 µM | 0.1 to 0.5 µM | 1 to 10 µM | 1 to 10 µM
3 | COC1(CCNC(=O)Nc2cnc(C)c(-c3cccc(-c4cc(NC(=O)C5CC5)ncn4)c3)c2)CC1 [Example 84] | > 1 µM | ≤ 0.1 µM | 1 to 10 µM | 0.5 to 1 µM
4 | COC(=O)Nc1cc(-c2cnnc(-c3cc(NC(=O)N4CCC(CC(F)(F)F)C4)ccc3C)c2)ccn1 (stereo not drawn) [Example 186] | > 1 µM | ≤ 0.1 µM | 1 to 10 µM | 0.5 to 1 µM
5 | Cc1ccc(NC(=O)N2CCC(CC(F)(F)F)C2)cc1-c1cncc(-c2cc(NC(=O)C3CC3)ncn2)c1 (stereo not drawn) [Example 194] | > 1 µM | ≤ 0.1 µM | ≤ 0.1 µM | ≤ 0.1 µM
6 | Cc1ccc(NC(=O)N2CC[C@@H](C(F)(F)F)C2)cc1-c1cncc(-c2ccnc(NC(=O)C3CC3)c2)c1 [Example 196] | > 1 µM | ≤ 0.1 µM | 1 to 10 µM | 0.5 to 1 µM
7 | Cc1ccc(NC(=O)N2CC[C@H](C(F)(F)F)C2)cc1-c1cccc(-c2cc(NC(=O)C3CC3)ncn2)c1 [Example 200] | > 1 µM | ≤ 0.1 µM | 0.1 to 0.5 µM | ≤ 0.1 µM
8 | Cc1ccc(NC(=O)N2CC[C@@H](C(F)(F)F)C2)cc1-c1cccc(-c2cc(NC(=O)C3CC3)ncn2)c1 [Example 201] | > 1 µM | ≤ 0.1 µM | 0.5 to 1 µM | 0.1 to 0.5 µM
9 | COC(=O)Nc1cc(-c2cncc(-c3cc(NC(=O)N4CCCCCC4)ccc3C)c2)ccn1 [Example 202] | > 1 µM | 0.5 to 1 µM | 1 to 10 µM | 1 to 10 µM
10 | CNC(=O)c1cc(-c2cc(-c3cc(NC(=O)NC4CCCCC4)c(F)cc3C)cc(OCCO)n2)ccn1 [Example 205] | > 1 µM | ≤ 0.1 µM | 0.1 to 0.5 µM | –
11 | COC(=O)Nc1cc(-c2cnnc(-c3cc(NC(=O)N4CCC(C(C)(C)O)C4)ccc3C)c2)ccn1 (stereo not drawn) [Example 206] | > 1 µM | 0.5 to 1 µM | 1 to 10 µM | 1 to 10 µM
12 | Cc1ccc(NC(=O)N2CCC(CC(F)(F)F)C2)cc1-c1cncc(-c2cc(N)ncn2)c1 (stereo not drawn) [Example 207] | > 1 µM | 0.1 to 0.5 µM | 1 to 10 µM | 0.5 to 1 µM
13 | COC(=O)Nc1cc(-c2cncc(-c3cc(NC(=O)N4CCCCC4)ccc3C)c2)ccn1 [Example 208] | > 1 µM | > 1 µM | 0.5 to 1 µM | 0.5 to 1 µM
14 | Cc1ccc(NC(=O)N2CCC(F)(F)C2)cc1-c1cncc(-c2cc(NC(=O)C3CC3)ncn2)c1 [Example 209] | > 1 µM | ≤ 0.1 µM | 1 to 10 µM | 1 to 10 µM
15 | COC(=O)Nc1cc(-c2cncc(-c3cc(NC(=O)N4CC[C@H](C(F)(F)F)C4)ccc3C)c2)ccn1 [Example 211] | > 1 µM | ≤ 0.1 µM | 0.5 to 1 µM | 0.1 to 0.5 µM
16 | COC(=O)Nc1cc(-c2cncc(-c3cc(NC(=O)N4CCCC4)ccc3C)c2)ccn1 [Example 213] | > 1 µM | > 1 µM | 1 to 10 µM | 1 to 10 µM

Now from value to compound, other results behind:

Row | IC50 (A-Raf kinase) | IC50 (B-Raf kinase) | IC50 (A375 cells) | Compound | IC50 (WM3928 cells)
17 | > 1 µM | 0.1 to 0.5 µM | 1 to 10 µM | Cc1cc(F)c(NC(=O)NCCC(C)(C)C#N)cc1-c1cc(N2CCOCC2)nc(N2CCOCC2)c1 [Example 22] | 1 to 10 µM
18 | > 1 µM | ≤ 0.1 µM | 0.5 to 1 µM | Cc1cc(F)c(NC(=O)NCCC2(C(F)(F)F)CC2)cc1-c1cc(N2CCOCC2)nc(N2CCOCC2)c1 [Example 23] | 0.1 to 0.5 µM
19 | 0.1 to 0.5 µM | ≤ 0.1 µM | ≤ 0.1 µM | CC(=O)Nc1cc(-c2cc(-c3cc(NC(=O)NCCC4(C)CC4)c(F)cc3C)cc(OCCO)n2)ccn1 [Example 33] | ≤ 0.1 µM
20 | > 1 µM | ≤ 0.1 µM | 1 to 10 µM | Cc1cc(F)c(NC(=O)NCCC2(C)CC2)cc1-c1cc(OCC(C)(C)O)nc(-c2ccncc2)c1 [Example 34] | 0.1 to 0.5 µM
21 | > 1 µM | ≤ 0.1 µM | 1 to 10 µM | Cc1cc(F)c(NC(=O)NCCC2(C)CC2)cc1-c1cccc(-c2ccnc(NC(=O)C3CC3)c2)c1 [Example 64] | 0.1 to 0.5 µM
22 | > 1 µM | ≤ 0.1 µM | 1 to 10 µM | Cc1cc(F)c(NC(=O)NCCC2(C)CC2)cc1-c1cccc(-c2cc(NC(=O)C3CC3)ncn2)c1 [Example 65] | 0.1 to 0.5 µM
23 | > 1 µM | ≤ 0.1 µM | 1 to 10 µM | Cc1cc(F)c(NC(=O)NCCC(C)(C)C#N)cc1-c1cccc(-c2ccnc(NC(=O)C3CC3)c2)c1 [Example 66] | 0.1 to 0.5 µM
24 | 0.1 to 0.5 µM | ≤ 0.1 µM | 1 to 10 µM | Cc1cc(F)c(NC(=O)NCCC(C)(C)C#N)cc1-c1cccc(-c2cc(NC(=O)C3CC3)ncn2)c1 [Example 67] | 1 to 10 µM
25 | 0.5 to 1 µM | ≤ 0.1 µM | 0.1 to 0.5 µM | Cc1ccc(NC(=O)N2CCC(C(F)(F)F)C2)cc1-c1cccc(-c2cc(NC(=O)C3CC3)ncn2)c1 (stereo not drawn) [Example 73] | ≤ 0.1 µM
26 | > 1 µM | ≤ 0.1 µM | 1 to 10 µM | Cc1ncc(NC(=O)NCCC(C)(C)F)cc1-c1ccnc(-c2ccnc(NC(=O)C3CC3)c2)c1 [Example 75] | 0.5 to 1 µM
27 | 0.1 to 0.5 µM | ≤ 0.1 µM | ≤ 0.1 µM | Cc1cc(F)c(NC(=O)NCCC2(C)CC2)cc1-c1cc(OCCO)nc(-c2ccnc(NC(=O)C3CC3)c2)c1 [Example 76] | ≤ 0.1 µM
28 | > 1 µM | ≤ 0.1 µM | ≤ 0.1 µM | COC(=O)Nc1cc(-c2cc(-c3cc(NC(=O)NCCC4(C)CC4)c(F)cc3C)cc(OCCO)n2)ccn1 [Example 77] | ≤ 0.1 µM
29 | > 1 µM | ≤ 0.1 µM | 1 to 10 µM | Cc1cc(F)c(NC(=O)NCCC2(C)CC2)cc1-c1ccnc(-c2ccnc3c2CC(=O)N3)c1 [Example 79] | 0.1 to 0.5 µM
30 | > 1 µM | ≤ 0.1 µM | ≤ 0.1 µM | Cc1cc(F)c(NC(=O)NC2CC(C)(C)C2)cc1-c1cc(OCCO)nc(-c2ccnc(NC(=O)C3CC3)c2)c1 [Example 80] | ≤ 0.1 µM
31 | 0.5 to 1 µM | ≤ 0.1 µM | 1 to 10 µM | COC(C)(C)CCNC(=O)Nc1cc(-c2nccc(-c3ccnc(NC(=O)C4CC4)c3)n2)c(C)cc1F [Example 83] | 0.1 to 0.5 µM
32 | 0.5 to 1 µM | ≤ 0.1 µM | 0.1 to 0.5 µM | Cc1ccc(NC(=O)N2CC[C@H](C(F)(F)F)C2)cc1-c1cncc(-c2cc(NC(=O)C3CC3)ncn2)c1 [Example 195] | ≤ 0.1 µM
33 | 0.5 to 1 µM | ≤ 0.1 µM | 0.1 to 0.5 µM | Cc1ccc(NC(=O)N2CC[C@H](C(F)(F)F)C2)cc1-c1cncc(-c2ccnc(NC(=O)C3CC3)c2)c1 [Example 197] | 0.1 to 0.5 µM
34 | 0.5 to 1 µM | ≤ 0.1 µM | 0.1 to 0.5 µM | Cc1ccc(NC(=O)N2CC[C@@H](C(F)(F)F)C2)cc1-c1cncc(-c2cc(NC(=O)C3CC3)ncn2)c1 [Example 210] | 0.1 to 0.5 µM
